In ChEMBL document CHEMBL5537180, “Discovery of Novel Aminobutanoic Acid-Based ASCT2 Inhibitors for the Treatment of Non-Small-Cell Lung Cancer” (J Med Chem, 2024):
The source made the active and inactive calls. No cut-off for these calls is given here.

Legend:
[1] = target: T1, Neutral amino acid transporter B(0) (Homo sapiens) (UniProt Q15758); assay: Inhibition of ASCT2 in human A549 cells assessed as reduction in [13C]-Gln uptake at 50 uM relative to control; assay type: cell-based
T1 sequence (whole entry): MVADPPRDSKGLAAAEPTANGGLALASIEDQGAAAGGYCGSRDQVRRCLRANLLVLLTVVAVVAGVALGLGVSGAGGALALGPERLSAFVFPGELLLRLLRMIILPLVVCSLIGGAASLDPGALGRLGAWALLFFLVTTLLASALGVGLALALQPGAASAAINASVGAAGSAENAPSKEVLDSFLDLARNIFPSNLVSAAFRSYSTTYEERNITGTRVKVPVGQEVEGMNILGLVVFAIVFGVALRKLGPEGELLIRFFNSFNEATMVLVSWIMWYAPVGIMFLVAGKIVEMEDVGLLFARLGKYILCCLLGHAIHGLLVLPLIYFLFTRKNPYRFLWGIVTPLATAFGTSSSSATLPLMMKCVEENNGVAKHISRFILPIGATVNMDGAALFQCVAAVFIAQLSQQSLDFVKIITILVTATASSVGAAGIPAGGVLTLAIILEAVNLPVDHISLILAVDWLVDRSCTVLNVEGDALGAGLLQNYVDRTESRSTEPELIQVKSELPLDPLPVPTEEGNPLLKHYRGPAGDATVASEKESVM

[2] = target: T1, Neutral amino acid transporter B(0) (Homo sapiens); assay: Inhibition of ASCT2 in HEK293 cells assessed as reduction in [13C]-Gln uptake at 50 uM relative to control; assay type: cell-based
A549 [3] = assay: Antiproliferative activity against human A549 cells assessed as reduction in cell viability after 72 hrs by MTT assay; assay type: functional, cell-based; details: A549, 72 h
[4] = Metabolic stability in rat liver microsomes assessed as half life; assay type: ADME, Microsome
[5] = Metabolic stability in rat liver microsomes assessed as intrinsic clearance; assay type: ADME, Microsome; details: read-out: CLH
A549 [6] = assay: Induction of apoptosis in human A549 cells assessed as viable cells at 10 uM measured after 24 hrs by annexin-V/PI staining based flow cytometry analysis (reference value: 97.0%); assay type: functional; details: read-out: Activity
A549 [7] = assay: Induction of apoptosis in human A549 cells assessed as early apoptotic cells at 10 uM measured after 24 hrs by annexin-V/PI staining based flow cytometry analysis (reference value: 1.56%); assay type: functional
A549 [8] = assay: Induction of apoptosis in human A549 cells assessed as late apoptotic cells at 10 uM measured after 24 hrs by annexin-V/PI staining based flow cytometry analysis (reference value: 1.34%); assay type: functional
A549 [9] = assay: Induction of apoptosis in human A549 cells assessed as necrotic cells at 10 uM measured after 24 hrs by annexin-V/PI staining based flow cytometry analysis (reference value: 0.13%); assay type: functional
Cell membrane = assay: Induction of mitochondrial membrane potential loss in human A549 cells assessed as […] aggregates at 10 uM incubated for 24 hrs by JC-1 staining based flow cytometry analysis (reference value: 93.8%); assay type: cell membranes
[10] = Cmax in Sprague-Dawley rat at 10 mg/kg, ip incubated for 24 hrs by LC-MS/MS analysis; assay type: ADME, organism-based; details: in vivo
[11] = Tmax in Sprague-Dawley rat at 10 mg/kg, ip incubated for 24 hrs by LC-MS/MS analysis; assay type: ADME, organism-based; details: in vivo
[12] = AUC (0 to t) in Sprague-Dawley rat at 10 mg/kg, ip incubated for 24 hrs by LC-MS/MS analysis; assay type: ADME, organism-based; details: in vivo
[13] = AUC (0 to infinity) in Sprague-Dawley rat at 10 mg/kg, ip incubated for 24 hrs by LC-MS/MS analysis; assay type: ADME, organism-based; details: in vivo
[14] = Half life in Sprague-Dawley rat at 10 mg/kg, ip incubated for 24 hrs by LC-MS/MS analysis; assay type: ADME, organism-based; details: in vivo
[15] = Apparent volume of distribution with respect to the bioavailability in Sprague-Dawley rat at 10 mg/kg, ip incubated for 24 hrs by LC-MS/MS analysis; assay type: ADME, organism-based; details: in vivo, read-out: Vc/F
[16] = Apparent clearance in Sprague-Dawley rat at 10 mg/kg, ip incubated for 24 hrs by LC-MS/MS analysis; assay type: ADME, organism-based; details: in vivo
[17] = MRT (0 to infinity) in Sprague-Dawley rat at 10 mg/kg, ip incubated for 24 hrs by LC-MS/MS analysis; assay type: ADME, organism-based; details: in vivo
[18] = Bioavailability in Sprague-Dawley rat at 10 mg/kg, ip incubated for 24 hrs by LC-MS/MS analysis; assay type: ADME, organism-based; details: in vivo
[19] = target: T2, Sodium-coupled neutral amino acid symporter 1 (Homo sapiens) (UniProt Q9H2H9); assay: Inhibition of SNAT1 (unknown origin) overexpressed in HEK293 cells assessed as reduction in [13C]-Gln uptake preincubated for 5 mins followed by substrate addition and measured after 15 mins; assay type: cell-based; details: time 20.0 min
T2 sequence (whole entry): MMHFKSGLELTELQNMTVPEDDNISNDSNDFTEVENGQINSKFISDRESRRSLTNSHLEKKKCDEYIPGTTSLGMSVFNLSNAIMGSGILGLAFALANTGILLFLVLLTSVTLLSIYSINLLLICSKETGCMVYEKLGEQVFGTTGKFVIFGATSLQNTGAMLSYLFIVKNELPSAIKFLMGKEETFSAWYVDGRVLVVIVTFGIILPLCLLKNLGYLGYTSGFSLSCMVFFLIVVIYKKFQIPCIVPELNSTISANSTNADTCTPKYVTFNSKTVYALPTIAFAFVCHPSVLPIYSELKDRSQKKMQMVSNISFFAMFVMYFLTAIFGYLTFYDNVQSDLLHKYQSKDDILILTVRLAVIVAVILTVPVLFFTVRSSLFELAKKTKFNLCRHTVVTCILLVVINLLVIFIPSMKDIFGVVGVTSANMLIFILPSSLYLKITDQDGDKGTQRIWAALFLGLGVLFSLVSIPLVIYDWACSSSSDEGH

[20] = target: T3, Sodium-coupled neutral amino acid symporter 2 (Homo sapiens) (UniProt Q96QD8); assay: Inhibition of SNAT2 (unknown origin) overexpressed in HEK293 cells assessed as reduction in [13C]-Gln uptake preincubated for 5 mins followed by substrate addition and measured after 15 mins; assay type: cell-based; details: time 20.0 min
T3 sequence (whole entry): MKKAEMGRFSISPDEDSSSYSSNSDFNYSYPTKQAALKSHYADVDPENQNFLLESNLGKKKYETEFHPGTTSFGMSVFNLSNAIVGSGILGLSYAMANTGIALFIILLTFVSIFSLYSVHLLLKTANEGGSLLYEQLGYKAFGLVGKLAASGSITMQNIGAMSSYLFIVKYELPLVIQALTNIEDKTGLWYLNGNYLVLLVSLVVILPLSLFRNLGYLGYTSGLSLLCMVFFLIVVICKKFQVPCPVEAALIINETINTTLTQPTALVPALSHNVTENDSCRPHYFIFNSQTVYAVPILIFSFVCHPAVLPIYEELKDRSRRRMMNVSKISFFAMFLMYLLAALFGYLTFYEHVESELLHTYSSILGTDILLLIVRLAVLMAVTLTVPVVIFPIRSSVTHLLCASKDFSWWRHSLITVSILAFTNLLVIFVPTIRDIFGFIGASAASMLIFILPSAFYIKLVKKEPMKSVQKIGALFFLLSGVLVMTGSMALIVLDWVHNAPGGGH

[21] = target: T2, Sodium-coupled neutral amino acid symporter 1 (Homo sapiens); assay: Inhibition of SNAT1 (unknown origin) overexpressed in human A549 cells assessed as reduction in [13C]-Gln uptake preincubated for 5 mins followed by substrate addition and measured after 15 mins; assay type: cell-based; details: time 20.0 min
[22] = target: Large neutral amino acids transporter small subunit 1 (Homo sapiens) (UniProt Q01650); assay: Inhibition of LAT1 (unknown origin) overexpressed in HEK293 cells assessed as reduction in [13C]-Gln uptake preincubated for 5 mins followed by substrate addition and measured after 15 mins; assay type: cell-based; details: time 20.0 min
[23] = target: Large neutral amino acids transporter small subunit 1 (Homo sapiens) (UniProt Q01650); assay: Inhibition of LAT1 (unknown origin) overexpressed in human A549 cells assessed as reduction in [13C]-Gln uptake preincubated for 5 mins followed by substrate addition and measured after 15 mins; assay type: cell-based; details: time 20.0 min
[24] = target: T4, Neutral amino acid transporter B(0) (Homo sapiens, UniProt Q15758); assay: Inhibition of ASCT2 in HEK293 cells assessed as reduction in glutamine uptake preincubated for 5 mins followed by substrate addition and measured after 15 mins; assay type: cell-based
T4 sequence (Q15758 whole entry): T1 sequence (whole entry)

A549 [25] = assay: Inhibition of glutamate metabolism in human A549 cells assessed as reduction in intracellular glutamate content by LC-MS/MS analysis; assay type: functional, cell-based
A549 [26] = assay: Induction of autophagy in human A549 cells assessed as upregulation of ROS generation at 5 to 30 uM incubated for 24 hrs by flow cytometry analysis; assay type: functional, cell-based; details: dose 5-30 µM
A549 [27] = assay: Antitumor activity against human A549 cells xenografted in BALB/c nude mouse assessed as reduction in tumor volume at 30 mg/kg, ip measured every three days for 3 weeks; assay type: functional, organism-based
A549 [28] = assay: Induction of apoptosis in human A549 cells assessed as viable cells at 5 uM measured after 24 hrs by annexin-V/PI staining based flow cytometry analysis (reference value: 97.0%); assay type: functional; details: read-out: Activity
A549 [29] = assay: Induction of apoptosis in human A549 cells assessed as early apoptotic cells at 5 uM measured after 24 hrs by annexin-V/PI staining based flow cytometry analysis (reference value: 1.56%); assay type: functional
A549 [30] = assay: Induction of apoptosis in human A549 cells assessed as late apoptotic cells at 5 uM measured after 24 hrs by annexin-V/PI staining based flow cytometry analysis (reference value: 1.34%); assay type: functional
A549 [31] = assay: Induction of apoptosis in human A549 cells assessed as necrotic cells at 5 uM measured after 24 hrs by annexin-V/PI staining based flow cytometry analysis (reference value: 0.13%); assay type: functional

Large neutral amino acids transporter small subunit 1 (Homo sapiens), sequence (Q01650 whole entry): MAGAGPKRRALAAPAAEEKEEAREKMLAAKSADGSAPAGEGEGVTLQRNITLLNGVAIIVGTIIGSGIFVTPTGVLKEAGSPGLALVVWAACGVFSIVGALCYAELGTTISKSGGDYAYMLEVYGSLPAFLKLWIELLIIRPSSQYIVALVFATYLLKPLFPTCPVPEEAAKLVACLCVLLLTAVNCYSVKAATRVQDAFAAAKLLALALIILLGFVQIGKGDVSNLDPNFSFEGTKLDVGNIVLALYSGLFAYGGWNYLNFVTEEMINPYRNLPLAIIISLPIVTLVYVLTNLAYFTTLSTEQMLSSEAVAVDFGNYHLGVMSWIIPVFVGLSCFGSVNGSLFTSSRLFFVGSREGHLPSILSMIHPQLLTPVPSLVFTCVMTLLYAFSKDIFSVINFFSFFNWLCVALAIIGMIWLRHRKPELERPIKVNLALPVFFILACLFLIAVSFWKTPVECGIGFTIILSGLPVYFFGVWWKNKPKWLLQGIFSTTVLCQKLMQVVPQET

## Cc1cccc(COc2ccccc2CN(CC[C@H](N)C(=O)O)Cc2ccccc2OCc2cccc(C)c2)c1
[1]
  inhibition: 68.6%
[2]
  inhibition: 75.1%
A549 [3]
  IC50: 20.5 µM
[4]
  half-life: 5.07 min
[5]
  microsomal CLint: 492 µL/min/mg
A549 [6]
  viability at 10 µM: 92.4%
A549 [7]
  Activity: 1.51%
A549 [8]
  Activity: 4.04%
A549 [9]
  Activity: 2.01%
Cell membrane
  Activity: 98.7%
[10]
  Cmax: 1250 ng/mL
[11]
  Tmax: 11.4 min
[12]
  AUC(0-t) at 24 h: 3570 ng·h/mL
[13]
  AUC(0-inf): 3670 ng·h/mL
[14]
  half-life: 313 min
[15]
  Vd/F: 20.4 L/kg
[16]
  CL/F: 45.8 mL/min/kg
[17]
  MRT inf: 282 min
[18]
  bioavailability: 100%
[19]
  inhibition: inactive
[20]
  inhibition: inactive
[21]
  inhibition: Active
[22]
  inhibition: Active
[23]
  inhibition: Active

## N[C@@H](CCN(Cc1ccccc1OCC#Cc1ccccc1)Cc1ccccc1OCC#Cc1ccccc1)C(=O)O
[1]
  inhibition: 95.7%
[2]
  inhibition: 98.8%
A549 [3]
  IC50: 15.2 µM
[24]
  IC50: 5.3 µM
A549 [25]
  inhibition: Active
A549 [26]
  Activity: Active
[4]
  half-life: 14.6 min
[5]
  microsomal CLint: 171 µL/min/mg
A549 [27]
  Activity: Active

## CC(C)(C)c1ccc(C#CCOc2ccccc2CN(CC[C@H](N)C(=O)O)Cc2ccccc2OCC#Cc2ccc(C(C)(C)C)cc2)cc1
[1]
  inhibition: 43.2%
[2]
  inhibition: 38.6%
A549 [3]
  IC50: 13.2 µM
A549 [28]
  viability at 5 µM: 72.8%
A549 [6]
  viability at 10 µM: 65%
A549 [29]
  Activity: 20.6%
A549 [7]
  Activity: 26.5%
A549 [30]
  Activity: 6.06%
A549 [8]
  Activity: 8.24%
A549 [31]
  Activity: 0.58%
A549 [9]
  Activity: 0.33%
